The record followed here is US9844214B2, “Alpha connexin C-terminal (ACT) peptides for use in transplant” (MUSC Foundation for Research Development, priority 2004, dated 2017).

Entries after “also recorded” stand apart in the source; their conditions may differ.

For data set [1] the following is noted: mouse, in vivo.
Method: Three CD1 mice were anesthetized by IP injection of 0.2 mL Salazine/ketamine. 10 μL of 1 mM ACT1 peptide dissolved in a solution containing normal saline and 0.05% Brij-78 was gently dripped onto the corneal surface of both eyes and allowed to permeate for 20 or 40 min. 0.05% Brij-78 in normal saline was used on a control mouse. The mice were sacrificed in a CO2 chamber and cervically dislocated at 20, 40 min (the control mouse sacrificed at 20 min). The eyes were removed and rinsed in PBS. A small incision was made in the anterior chamber and the aqueous humor (˜10 μL) was transferred to tube and flash frozen in a dry ice ethanol bath. The total sample was dissolved in 2× samples loading buffer and loaded on a 10-20% Tris-Tricine gel. Gel was transferred to a PDVF membrane and stained using RBT Sigma anti-CX43 CT antibody (1:10000) and a goat anti-RBT AP secondary (1:15000) to reveal the ACT1 band at <10 kDa.
Data set [2] has as its system HUVECs. Put plainly: HUVEC cold preservation, hypoxia and reperfusion model. The format is cell-based, human. Particulars: 48 h reperfusion. As for the experimental part:
(§1) HUVECs were exposed to two experimental conditions to model organ cold storage and reperfusion injuries. Cells were either (A) exposed to 200 nM H2O2 to induce oxidative injury, or (B) exposed to 6 h of cold preservation in UW at 4° C. in hypoxic conditions in the presence or absence of 100 μM ACT1 peptide, followed by 48 h of reperfusion in normal media.
(§2) HUVECs were exposed to either 18 h of cold storage in UW solution or UW/ACT1 followed by 48 h of reperfusion to model IRI in vitro, as previously described (Atkinson et al., 2013), or H2O2±ACT1 peptide to model oxidative stress. Efficacy was determined by TEER and IL-8 release.

In the next data set the test system is ARPE-19 cells. Put plainly: VEGF-induced deterioration of trans-epithelial resistance (TER) in ARPE19 monolayers. Format: cell-based, human. Conditions: ARPE19 monolayers pre-treated with the ACT peptide. The text has this: Thus, while not wishing to be bound by theory, stabilizing the tight junction proteins with the ACT peptide can prevent loss of tight-junction disintegration and thus damage to RPE/Bruch's membrane.

A further data set deals with porcine kidney. Put plainly: Porcine kidney model of cold ischemia (Cx43, nitrotyrosine, apoptosis staining). The arrangement: species or system pig. As for the experimental part: These studies were conducted using kidneys procured from 2 standard criteria donor pigs. The organs were flushed via the aorta with preservation solution after 10 minutes of warm ischemia post-mortem. Biopsies were taken prior to treatment. The kidneys were then flushed with either cold Belzer's solution (control) or the same solution containing 100 μm ACT1 peptide, and stored in the respective solutions on ice for 24 h. Biopsies were taken at regular intervals and sections were stained for Cx43 and nitrotyrosine.

The test system of data set [3] is Balb/c donor hearts implanted into B6 recipients. Put plainly: Mouse heterotopic heart allotransplantation model, 48 h post transplantation. Format: in vivo. The procedure:
Heart allograft transplants were performed between Balb/c donors to B6 recipients. Balb/c donor hearts were removed, perfused with UW solution and then static cold stored in either UW solution alone or UW solution supplemented with 100 μM ACT1 peptide for 6 h at 4° C. Following storage, hearts were implanted into B6 recipients using an abdominal heart transplant procedure.
Heterotopic abdominal heart transplants were performed between Balb/c and C57Bl/6 mice, as previously described (Gao et al., 2014). Donor hearts were cold preserved in UW or UW/ACT1 ([…]) for 6 h at 4° C. Following storage, hearts were then implanted and harvested at 48 h post transplantation to access the impact of ACT1 peptide post-treatment on IRI. Post transplant injury was assessed by analyses of serum Cardiac Troponin I and histological scoring of cardiac graft injury (FIG. 9) and inflammation; neutrophil and macrophage infiltration (FIG. 10), and pro-inflammatory cytokine.

Data set [4] concerns human respiratory epithelial cells. Put plainly: In vitro cold storage and reperfusion injury model, epithelial cells. The format is cell-based.
For another data set, the system named is mouse tracheas. Put plainly: Mouse trachea cold storage histology. Conditions: 6 h at 4° C. in PBS+ACT1 peptide vs PBS.
Data set [5] has as its system HUVECs. Put plainly: HUVEC H2O2 oxidative injury model. Format: cell-based, human. Conditions: 200 nM H2O2, ±ACT1 peptide. As for the experimental part: as §1, §2
Data set [6] relates to mouse cardiac endothelial cells. Put plainly: In vitro cold storage and reperfusion injury model, endothelial cells. Conditions: for IL-8 secretion, endothelial cells (Elisa): UW solution supplemented with ACT1 peptide. Format: cell-based. As for the experimental part: These studies were conducted using a modification of the in vitro donor cold storage and reperfusion injury model (Casiraghi et al., 2009). Human umbilical vein endothelial cells (HUVECs) and mouse microvascular endothelial cells were grown to confluence on transwells and transendothelial resistance (TEER) was recorded. To model cold ischemia and reperfusion injury growth, media was removed from the cells and replaced with either ice cold UW solution or UW solution containing ACT1 peptide, and cultures were exposed to 6 h of hypoxia in a hypoxic chamber (Billups-Rothenberg, Del Mar, Calif.) at 4° C. Following hypoxic exposure, UW solution was removed, and to stimulate reperfusion, UW solution was replaced with fresh pre-warmed (37° C.) culture media, and cells were monitored for 24 h. TEER was measured at three time points post reperfusion as a marker of endothelial/epithelial cell death and dysfunction. A loss of […], as measured by TEER, across the cellular monolayer is associated with a loss of cell-cell communication (thus, gap junction and tight junction injury), cell injury, and a leaky endothelial cell lining. In vivo, this would translate as dysfunction of the cell layer and facilitate uncontrolled fluid trafficking, loss of vascular tone, reduced barrier function that would facilitate immune cell infiltration.

Where [7] appears, read: UW + 100 μM ACT1, 6 h at 4° C., 48 h post transplantation, n=6, listed as ACT1 peptide.
Setting [8] is: UW/ACT1 (1000 μM) 6 h at 4° C., 48 h, n=3-6.
Where [9] appears, read: UW solution with 100 μM ACT1, 6 h hypoxia at 4° C., 4, 8 and 24 h post reperfusion, listed as ACT1 peptide.

RQPKIWFPNRRKPWKKRPRPDDLEI [ACT1]: the “ACT1 in fluid from the posterior chamber (vitreous humor), Western blot” value in [1] is reported as “Lower levels of ACT1 could also be detected”. Also, the “Trans-endothelial resistance after cold preservation, hypoxia and reperfusion” value in the data set on HUVECs [2] (6 h cold preservation in UW at 4° C., hypoxic, 100 μM ACT1) is “significantly protects endothelial cells from H2O2 to induce oxidative stress, and cold preservation, hypoxic reperfusion injury”. Moreover, the “IL-8 secretion after cold preservation, hypoxia and reperfusion” value in the data set with HUVECs [2] (UW ± 100 μM ACT1) was “rendered less pro-inflammatory as compared to untreated cells”. The “VEGF-induced deterioration of TER” value in the data set with ARPE-19 cells is listed as “prevents VEGF-induced deterioration of TER”. In the data set with porcine kidney (100 μM ACT1, cold ischemia 24 h), the “apoptosis (TUNEL and caspase)” value was “minimizes mitochondrial oxidant production (nitrotyrosine) and apoptosis (TUNEL and caspase)”. Further, the “Cx43 staining (gap junctions)” value with porcine kidney (100 μM ACT1 in cold Belzer's solution, up to 24 h cold ischemia, listed as ACT1 peptide) was “stabilizes gap junctions (Cx43); also recorded: Punctate Cx43 staining in the membrane (gap junctions) were preserved”. In addition, in data set [3] (setting [7]), the “Histological injury score (FIG. 6A)” value is on record as “significantly reduced cardiac injury”, the “neutrophil infiltration (FIG. 6C)” value is “significantly reduced neutrophil” and the “serum cardiac troponin I levels (FIG. 6B)” value is recorded as “reduced serum cardiac troponin I; also recorded: significantly reduced”. Further, in [3] (setting [8]), the “macrophage (Mac-3) infiltration, immunohistochemistry (FIG. 10B)” value is reported as “significantly reduces post transplant innate immune cell infiltration” and the “neutrophil (Gr-1) infiltration, immunohistochemistry (FIG. 10A)” value is given as “significantly reduces post transplant innate immune cell infiltration”. For the same sequence, in data set [3] (UW/ACT1 (1000 μM) 6 h at 4° C., 48 h post transplantation, n=3-6), the “serum concentration of Cardiac troponin I (FIG. 9B)” value is “significantly reduces post transplantation IRI injury”. The “post transplantation IRI injury, histological grading (FIG. 9A)” value in data set [3] (UW/ACT1 (1000 μM) 6 h at 4° C., 48 h post transplantation, n=3-6, listed as ACT1 peptide) was “significantly reduces ischemic reperfusion induced graft injury and inflammation; also recorded: significantly reduces post transplantation IRI injury”. Moreover, the “IL-8 secretion, epithelial cells” value in data set [4] (UW solution supplemented with ACT1 peptide) is “significant reduction in IL-8 secretion”. The “TEER / cellular injury, epithelial cells” value in data set [4] (setting [9]) is given as “significantly elevated TEER readings; also recorded: significantly reduced cellular injury”. Further, the trachea histology entry in the data set with mouse tracheas is on record as “preserved trachea histology”. Further, the “Trans-endothelial resistance after H2O2 oxidative injury” value with HUVECs [5] is given as “significantly protects endothelial cells from H2O2 to induce oxidative stress”. For the same sequence, the “IL-8 secretion, endothelial cells (Elisa)” value in [6] is given as “significantly reduced pro-inflammatory cytokine (IL-8) release”. Moreover, the “IL-8 secretion, endothelial cells (Elisa)” value in [6] (listed as ACT1 peptide) is given as “significant reduction in IL-8 secretion”. Moreover, the “TEER / cellular injury, endothelial cells” value in data set [6] (setting [9]) is reported as “significantly elevated TEER readings; also recorded: significantly reduced cellular injury”.
